Measured values reported in patent US5319085A, “Quinoline derivative having serotonin-3 receptor antagonizing activity” (priority 1990, dated 1994).

Columns and labels:
ddY strain male mice = assay: Acute toxicity, minimum lethal dose; assay type: in vivo; conditions: mortality for 7 days
Protocol: The test Compound was orally and intraperitoneally administered to ddY strain male mice weighing 20 to 25 g. MLD (Minimum Lethal Dose) was determined by observing the mortality for 7 days after the administration.

5HT3 receptor = 5HT3 receptor binding test, [3H] quipazine, NG108-15 cell membrane fraction; set-up: species or system rat; conditions: for Inhibition Rate (%) (Concentration 10^-7 M) / Inhibition Rate (%) (Concentration 10^-8 M): inhibition of 2 nM [3H] quipazine binding; for Ki: [3H] quipazine, Cheng Prusoff equation, 37° C., 60 minutes
Protocol: Using rat neuroblastoma-glyoma NG108-15 cell membrane fraction, the binding activities of the test compounds to 5HT3 receptor were examined.
A membrane fraction of NG108-15 cells was prepared according to the method of Neijt et al. [Naunyn-Schmiedeberg's Arch. Parmacol. 337, 493-499 (1988)].
The receptor binding experiment was performed using [^3 H] quipazine [J. Neurochem., 52, 1787 (1989)], a high affinity ligand to 5HT3 receptor.
A membrane fraction obtained from 4×10^5 NG108-15 cells was suspended in 1 ml of 20 mM Tris-hydrochloride buffer (pH 7.5) containing 154 mM sodium chloride. Then, 2 nM [^3 H] quipazine (2519.7 GBq/mmol; Du Pont Co., Ltd.) and various concentrations of the test compound were added to the suspension followed by incubating at 37° C. for 60 minutes. Then, 4 ml of an ice-cooled buffer was added to terminate the reaction and then the mixture was filtered through CF/C glass fiber filter (Whatmann Co., Ltd.). The filter was washed with the buffer, and put in a scintillation vial. Scintisol EX-H (Wako Pure Chemicals, Inc.) was added to the scintillation vial. Radioactivity on the filter was counted in a liquid scintillation counter.
An inhibition rate of the [^3 H] quipazine binding for the test compound was estimated according to the equation; [formula]
Ki values were estimated based on the resultant inhibition rates according to the Cheng Prusoff equation.
In this test, the comparison was made between Compound (I) and Compound C disclosed in Japanese Published Unexamined Patent Application No. 72886/85 as the reference compound.

[1] = system: Cisplatin-induced vomiting; assay: Activity against Cisplatin-induced vomiting; assay type: in vivo, Suncus mirinus; conditions: for Number of Vomiting (mean ± S.E.M.): 5 to 120 minutes; for Latency (min.) (mean ± S.E.M.): time to first vomiting
Protocol: Female and male Suncus mirinus animals weighing 23 to 68 g were used, one group consisting of 5 to 10 animals. According to the method of Matsuki et al. (Japan J. Pharmacol., 48, 303 (1988)], the animals were isolated in metal mesh cage (one animal/one cage). One hour after, the test compound or physiological saline (control) was intraperitoneally administered (i.p.) in a volume of 10 ul/g of body weight. Further 30 minutes after administration of the test compound, Cisplatin (20 or 40 mg/kg) was intraperitoneally administered. After administration of Cisplatin, a time period (latency) for the first vomiting and the number of frequencies of vomiting caused in the period of 5 to 120 minutes after administration, were determined. The latency and the number of frequencies in the test compound administered group were compared with those in the control group. The test of significance was performed by Student's t-test.

[2] = 0.1 mg/kg i.p., Cisplatin 40 mg/kg
[3] = 0.3 mg/kg i.p., Cisplatin 40 mg/kg
[4] = 1.0 mg/kg i.p., Cisplatin 40 mg/kg
[5] = 10.0 mg/kg i.p., Cisplatin 40 mg/kg
[6] = 0.01 mg/kg i.p., Cisplatin 20 mg/kg
[7] = 0.03 mg/kg i.p., Cisplatin 20 mg/kg
[8] = 0.1 mg/kg i.p., Cisplatin 20 mg/kg
[9] = 0.3 mg/kg i.p., Cisplatin 20 mg/kg
[10] = 1.0 mg/kg i.p., Cisplatin 20 mg/kg

| Compound | MLD (Minimum Lethal Dose) (ddY strain male mice; i.p.) [mg/kg] | MLD (Minimum Lethal Dose) (ddY strain male mice; p.o.) [mg/kg] | Inhibition Rate (%) (Concentration 10^-7 M) (5HT3 receptor) | Ki (5HT3 receptor) [nM] | Inhibition Rate (%) (Concentration 10^-8 M) (5HT3 receptor) | further results |
| --- | --- | --- | --- | --- | --- | --- |
| CN1[C@@H]2CC[C@H]1C[C@@H](OC(=O)c1cnc3ccccc3c1O)C2 [5S'a, Endo-(8-methyl-8-azabicyclo[3.2.1]oct-3-yl) 4-hydroxy-3-quinolinecarboxylate] | > 300 | > 100 | 107 | 6.1 |  | Number of Vomiting (mean ± S.E.M.) [1, 2]: 29.6 ± 3.5; Latency (min.) (mean ± S.E.M.) [1, 2]: 41.4 ± 0.7 min; Number of Vomiting (mean ± S.E.M.) [1, 3]: 13.2 ± 4.8; Latency (min.) (mean ± S.E.M.) [1, 3]: 69.6 ± 13.4 min; Number of Vomiting (mean ± S.E.M.) [1, 4]: 4.3 ± 2.4; Latency (min.) (mean ± S.E.M.) [1, 4]: 103.5 ± 10.3 min; Number of Vomiting (mean ± S.E.M.) [1, 5]: 7.6 ± 7.6; Latency (min.) (mean ± S.E.M.) [1, 5]: 105.1 ± 14.9 min |
| CN1[C@@H]2CCC[C@H]1C[C@@H](OC(=O)c1cnc3ccccc3c1)C2 [CSa, Endo-(9-methyl-9-azabicyclo[3.3.1]non-3-yl) 3-quinolinecarboxylate, reference compound] |  |  | 84 | 29 | 12 |  |
| CCCCOc1cc(C(=O)O[C@H]2C[C@H]3CC[C@@H](C2)N3C)c2ccccc2n1 [Compound 1Sa, Endo-(8-methyl-8-azabicyclo[3.2.1]oct-3-yl) 2-n-butoxy-4-quinolinecarboxylate] | 200 | 100 | 104 | 0.39 | 99 |  |
| CCCOc1cc(C(=O)O[C@H]2C[C@H]3CC[C@@H](C2)N3C)c2ccccc2n1 [Compound 2Sa, Endo-(8-methyl-8-azabicyclo[3.2.1]oct-3-yl) 2-n-propoxy-4-quinolinecarboxylate] | 100 | 100 | 104 | 0.32 | 101 |  |
| CC(C)Oc1cc(C(=O)O[C@H]2C[C@H]3CC[C@@H](C2)N3C)c2ccccc2n1 [Compound 3Sa, Endo-(8-methyl-8-azabicyclo[3.2.1]oct-3-yl) 2-isopropoxy-4-quinolinecarboxylate] | 200 | > 100 | 104 | 0.31 | 101 |  |
| COc1cc(C(=O)O[C@H]2C[C@H]3CC[C@@H](C2)N3C)c2ccccc2n1 [Compound 4Sa, Endo-(8-methyl-8-azabicyclo[3.2.1]oct-3-yl) 2-methoxy-4-quinolinecarboxylate] | 200 | 50 | 104 | 0.58 | 98 |  |
| CN1[C@@H]2CC[C@H]1C[C@@H](NC(=O)c1cnc3ccccc3c1O)C2 [Compound 6Sa, Endo-N-(8-methyl-8-azabicyclo[3.2.1]oct-3-yl)-4-hydroxy-3-quinolinecarboxamide] | > 300 | > 100 | 101 | 2.1 | 89 | Number of Vomiting (mean ± S.E.M.) [1, 6]: 10.0 ± 4.0; Latency (min.) (mean ± S.E.M.) [1, 6]: 58.2 ± 9.9 min; Number of Vomiting (mean ± S.E.M.) [1, 7]: 8.2 ± 1.4; Latency (min.) (mean ± S.E.M.) [1, 7]: 52.6 ± 4.2 min; Number of Vomiting (mean ± S.E.M.) [1, 8]: 7.4 ± 2.6; Latency (min.) (mean ± S.E.M.) [1, 8]: 85.7 ± 9.7 min; Number of Vomiting (mean ± S.E.M.) [1, 9]: 0.0 ± 0; Latency (min.) (mean ± S.E.M.) [1, 9]: 120.0 ± 0 min; Number of Vomiting (mean ± S.E.M.) [1, 10]: 0.0 ± 0; Latency (min.) (mean ± S.E.M.) [1, 10]: 120.0 ± 0 min |
| CC(C)COc1cc(C(=O)O[C@H]2C[C@H]3CC[C@@H](C2)N3C)c2ccccc2n1 [Compound 7Sa, Endo-(8-methyl-8-azabicyclo[3.2.1]oct-3-yl) 2-isobutoxy-4-quinolinecarboxylate] | 300 | > 100 | 108 | 0.44 | 101 |  |
| CCCCCOc1cc(C(=O)O[C@H]2C[C@H]3CC[C@@H](C2)N3C)c2ccccc2n1 [Compound 8Sa, Endo-(8-methyl-8-azabicyclo[3.2.1]oct-3-yl) 2-n-pentyloxy-4-quinolinecarboxylate] | > 300 | > 100 | 97 | 0.86 | 94 |  |
| CCCCCCOc1cc(C(=O)O[C@H]2C[C@H]3CC[C@@H](C2)N3C)c2ccccc2n1 [Compound 9Sa, Endo-(8-methyl-8-azabicyclo[3.2.1]oct-3-yl) 2-n-hexyloxy-4-quinolinecarboxylate] | > 300 | 50 | 97 | 3.2 | 74 |  |
| CCOc1cc(C(=O)O[C@H]2C[C@H]3CC[C@@H](C2)N3C)c2ccccc2n1 [Compound 10Sa, Endo-(8-methyl-8-azabicyclo[3.2.1]oct-3-yl) 2-ethoxy-4-quinolinecarboxylate] | 100 | 50 | 99 | 0.88 | 96 |  |
